Measurements reported in patent EP4755396A1, “TREATMENT OF P53 GENE MUTATION OR DEFECT NEGATIVE CANCER AND TUMOR PATIENTS” (Ascentawits Pharmaceuticals, Ltd., priority 2023, dated 2025).
Like-named read-outs stand apart in the source and are kept apart here.

Experiments:
H460 P53 KO #7 = experiment: In vitro cell proliferation inhibition under normoxia, p53 knockout cells; format: cell-based, human; conditions: for IC50: Homo sapiens, NCI-H460, H460 P53 KO # 7, normoxia, 72 hours, alone or with 3µM AST-3021 as labelled (Example 10)
Experimental: (§1) The p53 CRISPR/Cas9 KO plasmid (human) and p53 HDR plasmid (human) were purchased from Santa Cruz Company to construct H460 P53 KO cell lines, namely p53 knockout (KnockOut) H460 cell lines. Three groups of H460 P53 KO cell lines were constructed with numbers of H460 P53 KO # 1, H460 P53 KO # 7, and H460 P53 KO # 12.
(§2) After co-incubation for 15 minutes, they were added dropwise to the culture medium and mixed well.
(§3) After 48 h, 2 µg/mL puromycin was added for screening.
(§4) When the cell colonies grew to a sufficient size, single colonies were picked and cultured.
(§5) When the cell number reached a sufficient quantity, samples were collected for WB identification of the colonies.
(§6) H460 P53 KO cell lines, i.e. H460 P53 KO # 1, H460 P53 KO # 7, H460 P53 KO # 12 cell lines were used in experiments, respectively.

H460 P53 KO #12 = experiment: as above; format: cell-based, human; conditions: for IC50: Homo sapiens, NCI-H460, H460 P53 KO # 12, normoxia, 72 hours, alone or with 3µM AST-3021 as labelled (Example 10)
Experimental: as §1, §2, §3, §4, §5, §6

H460 cells [1] = experiment: In vitro cell proliferation inhibition under normoxia (96-well, CTG, 72 hours); format: cell-based, human; conditions: for IC50 / inhibition at 0.0005 µM / inhibition at 0.0015 µM: Homo sapiens; for inhibition at 0.0005 µM: AST 0.5 nM; for inhibition at 0.0015 µM: AST 1.5 nM
Experimental: Overview of the experimental process • 1) H460 cell suspension was added to a 96-well plate at 100 µL per well, with a cell density of 2000 /well. • 2) The cells were cultured overnight in an incubator at 37°C, 5% CO2. • 3) Compound Treatment
Monotherapy: After 24 hours of cell plating, each well was supplied with 99.5 µL of growth medium then added with 0.5µL of test compounds at different concentrations, shaken gently to ensure even mixing, and then placed at 37°C, 5% CO2 in an incubator.
(§7) Combination therapy: After 24 hours of cell plating, each well was supplied with 99 µL of growth medium then added with 0.5µL of the combined action compound Nutlin-3, shaken gently to ensure even mixing, and then placed in an incubator for 2 hours. Then each well was added with 0.5µL of test compounds at different concentrations, shaken gently to ensure even mixing, and then placed at 37°C, 5% CO2 in an incubator.
(§8) 4) The cell plate was placed in the incubator for 72 hours.
(§9) 5) The cell plate to be tested was placed at room temperature to equilibrium for 30 minutes, and 100µL of medium was discarded per well.
(§10) 6) 25µL of CTG reagent was added to each well, placed at a fast shaker to shake for 2 minutes, and placed at room temperature away from light for 30 minutes.
(§11) 7) The chemiluminescence signal value was read using a multifunctional microplate reader with a reading time of 1000 ms.
8) IC50 was calculated with Graph Pad Prism 5 software.
(§12) • 1) H460 and HPAF-II cell suspensions were added to a 96-well plate at 100 µL per well, with a cell density of 2000 /well and 20000/well, respectively. • 2) The cells were cultured overnight in an incubator at 37°C, 5% CO2. • 3) Compound Treatment
(§13) Combination therapy: After 24 hours of cell plating, 99 µL of growth medium was supplied to each well. Each well was added with 0.5 µL of Nutlin-3 or RITA, shaken gently to ensure even mixing, and then placed in an incubator for 2 hours. Then each well was added with 0.5µL of test compounds at different concentrations, shaken gently to ensure even mixing, and then placed at 37°C, 5% CO2 in an incubator.
(§14) Monotherapy: After 24 hours of cell plating, 99.5 µL of growth medium was supplied to each well. Then each well was added with 0.5µL of test compounds at different concentrations, shaken gently to ensure even mixing, and then placed at 37°C, 5% CO2 in an incubator.
(§15) 7) The chemiluminescence signal value was read using a multifunctional microplate reader with a reading time of 1000 ms. The corresponding inhibition rate data were calculated.
(§16) • 1) NCI-H460, NCI-H460 P53KO # 1 cell suspensions were added to a 96-well plate at 100 µL per well, with a cell density of 2000 /well. • 2) The cells were cultured overnight in an incubator at 37°C, 5% CO2. • 3) Compound Treatment
as §7, with “plating,” for “plating, each well was supplied with”, “of” for “of growth”, “medium was supplied to each well. Each well was” for “medium then”, “of” for “of the”, “action compound,” for “action compound Nutlin-3,”
(§17) 8) The ICso (half maximal inhibitory concentration) values were calculated using GraphPad Prism 5 software.

H460 cells [2] = experiment: Cell cycle G2/M arrest, PI staining flow cytometry; format: cell-based
Experimental: Overview of the experimental process: • 1) H460/HPAF-II cell suspensions were added to a 24-well plate, with a cell density of 100000 /well and 995 µL of medium per well. • 2) The cells were cultured overnight in an incubator at 37°C, 5% CO2. • 3) Compound Treatment
4) The cells were digested, centrifuged at 1000 g at 4°C, washed once with pre-cooled PBS, centrifuged at 1000 g at 4°C, and fixed with 1 mL of pre-cooled 70% ethanol at -20°C overnight.
5) The cells were centrifuged at 3000g at 4°C, washed once with pre-cooled PBS (phosphate buffer), centrifuged at 3000g at 4°C. Prepare PI staining solution. The cells were stained at 37°C away from light for 30 minutes, and stored in an ice bath away from light. Flow cytometric detection was performed on the same day, and the proportion of cells in different cell cycle phases was analyzed using FlowJo.

H460 P53 KO #1 = experiment: In vitro cell proliferation inhibition under normoxia, p53 knockout cells; format: cell-based, human; conditions: for IC50: Homo sapiens, 72 hours
Experimental: as §1, §2, §3, §4, §5, §6, §16, §14
as §7, with “plating,” for “plating, each well was supplied with”, “of” for “of growth”, “medium was supplied to each well. Each well was” for “medium then”, “of” for “of the”, “action compound,” for “action compound Nutlin-3,”
as §8, §9, §10, §11, §17

HPAF-II cells = experiment: In vitro cell proliferation inhibition (96-well, CTG, 72 hours); format: cell-based; conditions: for inhibition at 0.06 µM / inhibition at 0.2 µM / inhibition at 1.667 µM / inhibition at 5 µM: Homo sapiens, HPAF-II cells, 72 hours; for inhibition at 0.06 µM: AST 60 nM; for inhibition at 0.2 µM: AST 200 nM; for inhibition at 1.667 µM: AST 1667 nM; for inhibition at 5 µM: AST 5000 nM
Experimental: as §12, §13, §14, §8, §9, §10, §15

SMILES: C[C@H](OP(=O)(N1CC1)N1CC1)c1ccc([N+](=O)[O-])c(Oc2cccc(C(=O)N(C)C)c2)c1 [AST-3424]
- IC50 (H460 P53 KO #7): 23.1 nM
- IC50 (H460 P53 KO #12): 1.99 nM
- proliferation inhibition rate of AST-3424 (H460 cells [1]; H460 cells, Nutlin-3 added 2 hours in advance, followed by AST-3424, 72 hours (Figure 1)): increase significantly
- IC50 (H460 cells [1]; NCI-H460, 72 h, H460 WT, normoxia, 72 hours, alone or with 3µM AST-3021 as labelled (Example 10)): 0.23 nM
- IC50 (H460 cells [1]; NCI-H460, 72 h, NCI-H460, normoxia, 72 hours, alone or with 3 µM AST-3021 as labelled (Example 13)): 0.43 nM
- cell cycle (G0/G1, S, G2/M phases) (H460 cells [2]; first experiment, 0.1 nM AST-3424, 5 µM Nutlin-3, 24 hours, combination: AST-3424 first (Figure 5)): did not significantly alter the cell cycle
- G2/M cell cycle arrest (H460 cells [2]; second experiment, 0.03-1 nM AST-3424, 5 µM Nutlin-3, AST-3424 pre-treatment 2 hours (Figure 6)): concentration-dependent G2/M cell cycle arrest
- IC50 (H460 P53 KO #1; NCI-H460, 72 h, H460 P53 KO # 1, normoxia, alone or with 3µM AST-3021 as labelled (Example 10)): 11.3 nM
- IC50 (H460 P53 KO #1; NCI-H460, 72 h, NCI-H460 P53KO # 1, normoxia, alone or with 3 µM AST-3021 as labelled (Example 13)): 5.45 nM

SMILES: O=[N+]([O-])c1ccc(C(OP(=O)(N2CC2)N2CC2)C(F)(F)F)cc1Oc1ccc(-c2ccc(F)cc2)c(F)c1 (stereo not shown) [AST]
- IC50 (H460 P53 KO #7): 220 nM
- Ratio (monotherapy), knockout/wild (H460 P53 KO #7; IC50 ratio, H460 P53 KO # 7 versus H460 WT): 86.08
- IC50 (H460 P53 KO #12): 28 nM
- Ratio (monotherapy), knockout/wild (H460 P53 KO #12; IC50 ratio, H460 P53 KO # 12 versus H460 WT): 10.96
- concentration needed to achieve an inhibition rate of 11-12% (HPAF-II cells; AST monotherapy, p53 mutant HPAF-II cells): 60 nM
- inhibition at 0.06 µM (HPAF-II cells; RITA 2.5 µM, AST + RITA 60+2.5, read-out: Inhibition rate, experimental group 1): 14.9%
- inhibition at 0.06 µM (HPAF-II cells; RITA 5 µM, AST + RITA 60+5, read-out: Inhibition rate, experimental group 2): 14.9%
- inhibition at 0.2 µM (HPAF-II cells; RITA 2.5 µM, AST + RITA 200+2.5, read-out: Inhibition rate, experimental group 3): 11.8%
- inhibition at 0.2 µM (HPAF-II cells; RITA 5 µM, AST + RITA 200+5, read-out: Inhibition rate, experimental group 4): 11.8%
- inhibition at 1.667 µM (HPAF-II cells; RITA 2.5 µM, AST + RITA 1667+2.5, read-out: Inhibition rate, experimental group 5): 74.3%
- inhibition at 1.667 µM (HPAF-II cells; RITA 5 µM, AST + RITA 1667+5, read-out: Inhibition rate, experimental group 6): 74.3%
- inhibition at 5 µM (HPAF-II cells; RITA 2.5 µM, AST + RITA 5000+2.5, read-out: Inhibition rate, experimental group 7): 68.8%
- inhibition at 5 µM (HPAF-II cells; RITA 5 µM, AST + RITA 5000+5, read-out: Inhibition rate, experimental group 8): 68.8%
- concentration required to achieve an inhibition rate of 11-12% (H460 cells [1]; AST monotherapy, p53 wild-type H460 cells): 1.5 nM
- IC50 (H460 cells [1]; NCI-H460, H460 WT, normoxia, 72 hours, alone or with 3µM AST-3021 as labelled (Example 10), read-out: IC50): 2.55 nM
- inhibition at 0.0005 µM (H460 cells [1]; NCI-H460, H460 cells, 72 hours, RITA 0.025 µM, AST + RITA 0.5+0.025, read-out: Inhibition rate result, experimental group 1): -0.29%
- inhibition at 0.0005 µM (H460 cells [1]; NCI-H460, H460 cells, 72 hours, RITA 0.05 µM, AST + RITA 0.5+0.05, read-out: Inhibition rate result, experimental group 2): -0.29%
- inhibition at 0.0015 µM (H460 cells [1]; NCI-H460, H460 cells, 72 hours, RITA 0.025 µM, AST + RITA 1.5+0.025, read-out: Inhibition rate result, experimental group 3): 12.2%
- inhibition at 0.0015 µM (H460 cells [1]; NCI-H460, H460 cells, 72 hours, RITA 0.05 µM, AST + RITA 1.5+0.05, read-out: Inhibition rate result, experimental group 4): 12.2%
- IC50 (H460 cells [1]; NCI-H460, H460 cells, monotherapy, applicant's previous cancer cell proliferation inhibition test data, read-out: IC50): 6.87 nM
- IC50 (H460 P53 KO #1; NCI-H460, H460 P53 KO # 1, normoxia, alone or with 3µM AST-3021 as labelled (Example 10)): 264 nM
- Ratio (monotherapy), knockout/wild (H460 P53 KO #1; IC50 ratio, H460 P53 KO # 1 versus H460 WT): 103.53
